In one assay the target is T1, human TLR4 (Homo sapiens, UniProt O00206).
T1 construct: expressed in transfected cells; host or cells: HEK293
Kind of assay: TLR ligand screening, NF-κB SEAP reporter in HEK293 cells expressing TLR4. As to conditions: one concentration: Guanosine 100 uM, NTR001 10 uM, Inosine 100 uM; FIG. 2. The class given is cell-based. On the procedure: (§1) TLR stimulation is tested by assessing NF-κB activation in HEK293 cells expressing a given TLR. The Secreted Embryonic Alkaline Phosphatase (SEAP) reporter is under the control of a promoter inducible by the transcription factor NF-κB. This reporter gene allows the monitoring of signaling through the TLR, based on the activation of NF-κB. The compounds are evaluated at one concentration and compared to control ligands. This step is performed in triplicate.

Another assay deals with T2, human TLR5 (Homo sapiens, UniProt O60602).
T2 construct: expressed in transfected cells; host or cells: HEK293
T2 sequence (O60602 21-858): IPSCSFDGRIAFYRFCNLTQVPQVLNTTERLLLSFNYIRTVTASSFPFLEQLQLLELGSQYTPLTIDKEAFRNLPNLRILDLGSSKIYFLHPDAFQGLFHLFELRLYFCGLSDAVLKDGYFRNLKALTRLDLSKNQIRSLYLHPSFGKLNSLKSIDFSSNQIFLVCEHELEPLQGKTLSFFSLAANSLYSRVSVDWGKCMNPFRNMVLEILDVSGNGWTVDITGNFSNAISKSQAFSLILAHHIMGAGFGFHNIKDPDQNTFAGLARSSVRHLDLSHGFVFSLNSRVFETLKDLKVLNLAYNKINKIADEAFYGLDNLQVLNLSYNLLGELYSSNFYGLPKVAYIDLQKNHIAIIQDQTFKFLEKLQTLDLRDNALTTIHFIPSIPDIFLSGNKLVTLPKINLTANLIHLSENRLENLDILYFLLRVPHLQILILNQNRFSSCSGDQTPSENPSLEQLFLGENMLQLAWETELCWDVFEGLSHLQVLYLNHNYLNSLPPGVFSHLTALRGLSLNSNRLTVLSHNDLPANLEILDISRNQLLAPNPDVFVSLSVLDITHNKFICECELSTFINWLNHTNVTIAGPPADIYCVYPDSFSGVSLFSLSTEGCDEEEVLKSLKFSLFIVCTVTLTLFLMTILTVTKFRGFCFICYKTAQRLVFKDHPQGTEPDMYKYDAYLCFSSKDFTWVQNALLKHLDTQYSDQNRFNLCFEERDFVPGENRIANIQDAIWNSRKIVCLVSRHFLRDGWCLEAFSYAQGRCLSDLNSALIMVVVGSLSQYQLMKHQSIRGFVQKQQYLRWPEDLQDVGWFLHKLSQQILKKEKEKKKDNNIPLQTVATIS
Kind of assay: TLR ligand screening, NF-κB SEAP reporter in HEK293 cells expressing TLR5. The class given is cell-based. The following applies: one concentration: NTR001 10 uM, Inosine 100 uM; FIG. 2. The protocol: as §1

In another assay the target is T3, human TLR7 (Homo sapiens, UniProt Q9NYK1).
T3 construct: expressed in transfected cells; host or cells: HEK293
T3 sequence (Q9NYK1 27-1049): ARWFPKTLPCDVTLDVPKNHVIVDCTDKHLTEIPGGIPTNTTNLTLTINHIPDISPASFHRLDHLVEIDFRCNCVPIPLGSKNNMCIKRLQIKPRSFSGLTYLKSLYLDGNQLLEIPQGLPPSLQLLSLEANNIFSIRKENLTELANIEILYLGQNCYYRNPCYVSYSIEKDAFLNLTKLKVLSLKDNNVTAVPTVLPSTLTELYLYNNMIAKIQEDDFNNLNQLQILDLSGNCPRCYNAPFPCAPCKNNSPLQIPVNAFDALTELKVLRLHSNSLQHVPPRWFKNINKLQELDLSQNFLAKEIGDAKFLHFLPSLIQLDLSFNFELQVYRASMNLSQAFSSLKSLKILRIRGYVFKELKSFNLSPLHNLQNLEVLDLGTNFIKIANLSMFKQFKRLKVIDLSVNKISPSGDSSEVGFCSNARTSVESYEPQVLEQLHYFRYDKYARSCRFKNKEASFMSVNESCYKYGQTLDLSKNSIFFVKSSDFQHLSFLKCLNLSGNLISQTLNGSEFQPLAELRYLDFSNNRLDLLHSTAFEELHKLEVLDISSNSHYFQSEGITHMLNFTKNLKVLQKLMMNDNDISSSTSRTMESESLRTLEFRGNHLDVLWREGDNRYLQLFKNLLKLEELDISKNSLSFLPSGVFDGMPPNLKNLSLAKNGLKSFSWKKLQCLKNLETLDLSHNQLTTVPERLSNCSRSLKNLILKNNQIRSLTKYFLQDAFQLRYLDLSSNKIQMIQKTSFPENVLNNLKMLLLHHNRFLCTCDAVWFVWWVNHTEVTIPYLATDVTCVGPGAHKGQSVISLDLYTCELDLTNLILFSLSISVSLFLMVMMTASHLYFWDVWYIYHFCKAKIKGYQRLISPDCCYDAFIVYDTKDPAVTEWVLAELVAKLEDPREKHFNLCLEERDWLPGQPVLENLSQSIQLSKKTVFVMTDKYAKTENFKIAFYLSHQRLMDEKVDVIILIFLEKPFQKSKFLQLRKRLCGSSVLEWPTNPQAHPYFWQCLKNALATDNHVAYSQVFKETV
Kind of assay: TLR ligand screening, NF-κB SEAP reporter in HEK293 cells expressing TLR7. The class given is cell-based. As to conditions: one concentration: NTR001 10 uM, Inosine 100 uM; FIG. 2. The protocol:
as §1

In another assay the target is T4, human TLR3 (Homo sapiens, UniProt O15455).
T4 construct: expressed in transfected cells; host or cells: HEK293
T4 sequence (O15455 24-904): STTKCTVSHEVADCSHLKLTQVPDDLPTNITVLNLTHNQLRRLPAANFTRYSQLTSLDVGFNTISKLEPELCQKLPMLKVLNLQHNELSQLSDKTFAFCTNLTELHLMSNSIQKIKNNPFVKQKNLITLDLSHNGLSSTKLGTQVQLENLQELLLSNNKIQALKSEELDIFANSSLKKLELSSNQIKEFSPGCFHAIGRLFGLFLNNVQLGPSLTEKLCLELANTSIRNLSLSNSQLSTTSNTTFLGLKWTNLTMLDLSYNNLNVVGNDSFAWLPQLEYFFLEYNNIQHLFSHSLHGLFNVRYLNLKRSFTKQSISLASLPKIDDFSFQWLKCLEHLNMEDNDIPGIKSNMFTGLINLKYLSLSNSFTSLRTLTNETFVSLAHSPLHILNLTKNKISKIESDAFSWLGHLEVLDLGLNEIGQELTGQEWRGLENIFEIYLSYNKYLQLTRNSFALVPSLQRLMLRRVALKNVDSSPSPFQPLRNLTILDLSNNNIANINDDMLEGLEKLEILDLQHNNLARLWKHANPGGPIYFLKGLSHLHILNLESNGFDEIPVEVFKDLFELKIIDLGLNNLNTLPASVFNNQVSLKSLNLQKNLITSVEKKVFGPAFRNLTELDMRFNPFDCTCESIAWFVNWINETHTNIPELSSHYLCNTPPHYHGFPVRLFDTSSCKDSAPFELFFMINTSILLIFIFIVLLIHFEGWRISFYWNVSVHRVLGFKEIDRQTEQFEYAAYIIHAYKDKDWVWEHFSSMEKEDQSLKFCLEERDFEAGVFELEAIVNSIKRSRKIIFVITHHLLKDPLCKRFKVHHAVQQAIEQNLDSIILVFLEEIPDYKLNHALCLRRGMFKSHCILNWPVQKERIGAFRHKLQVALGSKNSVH
Kind of assay: TLR ligand screening, NF-κB SEAP reporter in HEK293 cells expressing TLR3. It is filed as cell-based. As to conditions: one concentration: NTR001 10 uM, Inosine 100 uM; FIG. 2. On the procedure: as §1

The subject of a further assay is tetanus toxoid vaccine. Put plainly: Tetanus toxoid vaccine efficacy study (adjuvant) in mice. The class given is in vivo. The following applies: compared to vehicle treated group. The protocol: Tetanus toxoid (TT) was used to vaccinate mice thrice, two weeks apart. Mice were treated by oral administration of compounds NTR001 and NTR002 and serum was collected at various time points for antibody titer and interferon-g analysis. Mice in Groups 2-6 (Table 2) are vaccinated subcutaneously with 0.1 ml tetanus toxoid vaccine on DAYS 0, 14 and 28. Mice in Group 1 (Table 1) received no vaccine. Antibody titers for DAYS 38 are determined by ELISA using tetanus toxoid coated microtiter plates and anti-mouse conjugate. Sera from DAY 30 are assayed by ELISA for interferon-g.

Assay [1] concerns L. monocytogenes (ATCC Strain35152, hemolytic substrain). Kind of assay: Mouse model of L. monocytogenes infection. It is filed as in vivo. The following applies: Balb/c mice infected i.v. with 1×10^6 CFU; treatments per Table 3; FIGS. 7 and 9.
The test system of a further assay is B16 tumors. Kind of assay: Syngeneic mouse melanoma model. The class given is in vivo, C57BL/6 mice. On the procedure: Cancer cells were injected subcutaneously in right flank of each mouse, 1×10^4 cells in 0.1 ml PBS with 20% Matrigel. Treatment with the NTR001 was initiated on day 6 after injection of tumor cells. Tumor volume and survival were recorded every 3-4 days.

Consider 2 compounds from US9616129B2, “Compositions and methods for potentiating immune response, enhancing immunotherapy, and increasing vaccine potency” (Nitor Therapeutics, priority 2013, dated 2017).

T1 sequence (O00206 24-839): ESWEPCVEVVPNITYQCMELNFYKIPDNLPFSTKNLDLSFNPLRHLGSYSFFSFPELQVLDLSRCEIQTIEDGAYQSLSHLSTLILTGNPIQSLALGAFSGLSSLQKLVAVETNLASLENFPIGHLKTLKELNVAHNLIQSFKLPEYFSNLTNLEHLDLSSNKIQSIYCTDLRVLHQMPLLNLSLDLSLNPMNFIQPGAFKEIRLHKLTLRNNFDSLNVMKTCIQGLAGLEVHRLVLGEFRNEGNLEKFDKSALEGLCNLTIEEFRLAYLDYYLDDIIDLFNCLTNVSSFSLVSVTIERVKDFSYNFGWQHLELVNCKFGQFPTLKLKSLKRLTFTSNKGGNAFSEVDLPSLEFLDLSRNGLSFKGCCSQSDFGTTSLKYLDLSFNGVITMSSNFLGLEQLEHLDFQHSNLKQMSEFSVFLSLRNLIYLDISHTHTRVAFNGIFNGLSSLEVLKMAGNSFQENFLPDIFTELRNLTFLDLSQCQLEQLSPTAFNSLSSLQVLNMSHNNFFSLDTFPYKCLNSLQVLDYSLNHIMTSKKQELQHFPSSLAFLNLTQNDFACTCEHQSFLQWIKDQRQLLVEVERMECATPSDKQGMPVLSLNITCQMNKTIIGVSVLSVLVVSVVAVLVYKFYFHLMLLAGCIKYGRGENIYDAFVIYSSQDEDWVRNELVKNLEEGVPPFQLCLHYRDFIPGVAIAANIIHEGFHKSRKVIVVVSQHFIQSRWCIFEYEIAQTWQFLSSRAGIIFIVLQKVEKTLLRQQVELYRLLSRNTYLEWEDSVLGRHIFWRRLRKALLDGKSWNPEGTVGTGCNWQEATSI
T1 sequence (Q9Y6Y9 17-160 partner limits assumed): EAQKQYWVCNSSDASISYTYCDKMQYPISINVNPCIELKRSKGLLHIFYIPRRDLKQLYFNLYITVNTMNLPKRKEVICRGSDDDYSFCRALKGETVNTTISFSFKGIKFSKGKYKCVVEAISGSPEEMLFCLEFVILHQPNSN

Take `OC[C@H]1O[C@@H](n2cnc3c(O)ncnc32)[C@H](O)[C@@H]1O` [Inosine]: on human TLR4, the “stimulatory effect on human TLR4 (NF-κB activation)” value was “do not exhibit a stimulatory effect”. For the same compound, the “stimulatory effect on human TLR5 (NF-κB activation)” value at human TLR5 is given as “do not exhibit a stimulatory effect”. For the same compound, the “stimulatory effect on human TLR7 (NF-κB activation)” value at human TLR7 is “do not exhibit a stimulatory effect”. For the same compound, on human TLR3, the “stimulatory effect on human TLR3 (NF-κB activation)” value was “do not exhibit a stimulatory effect”.

For `O=c1[nH]cnc2c([C@@H]3N[C@H](CO)[C@@H](O)[C@H]3O)c[nH]c12` [NTR001, 7-[(2S,3S,4R,5R)-3,4-dihydroxy-5-(hydroxymethyl)-2-pyrrolidinyl]-1,5-dihydro-4H-pyrrolo[3,2-d]pyrimidin-4-one], the “stimulatory effect on human TLR4 (NF-κB activation)” value at human TLR4 is “do not exhibit a stimulatory effect”. Moreover, the “stimulatory effect on human TLR5 (NF-κB activation)” value on human TLR5 is “do not exhibit a stimulatory effect”. For the same compound, the serum interferon-g result in the assay with tetanus toxoid vaccine (day 30, ELISA, high dose group 60 mg/kg p.o., FIG. 4) is listed as “elevated”. Also, the “serum tetanus toxoid antibody titers” value with tetanus toxoid vaccine (day 38, ELISA, p.o. 30 mg/kg (6 days of treatment) and 60 mg/kg (3 days of treatment), FIG. 3) was “significantly elevated”. Moreover, the weight loss entry in assay [1] is “significant decrease”. Moreover, the “stimulatory effect on human TLR7 (NF-κB activation)” value on human TLR7 is reported as “do not exhibit a stimulatory effect”. For the same compound, the tumor volume result in the assay with B16 tumors (B16 melanoma, C57BL/6 mice, treatment from day 6, FIG. 5) is recorded as “significant decrease”. Besides, the survival in the assay on B16 tumors (NTR001 as single agent (30 mg/kg PO week on/off or 5 mg/kg drinking water), FIG. 6) is listed as 0-20%. The “stimulatory effect on human TLR3 (NF-κB activation)” value on human TLR3 is “do not exhibit a stimulatory effect”.
